For one assay, the target named is Dipeptidyl peptidase 4 (Homo sapiens, UniProt P27487). Nature of the assay: In vitro for inhibition of Dipeptidylpeptidase IV.
The target in another assay is Dipeptidyl peptidase 2 (Homo sapiens, UniProt Q9UHL4). Nature of the assay: Compound was tested in vitro for inhibition of Dipeptidylpeptidase II.
The target in the next assay is T1, Prolyl endopeptidase (Homo sapiens, UniProt P48147).
T1 sequence (P48147 whole entry): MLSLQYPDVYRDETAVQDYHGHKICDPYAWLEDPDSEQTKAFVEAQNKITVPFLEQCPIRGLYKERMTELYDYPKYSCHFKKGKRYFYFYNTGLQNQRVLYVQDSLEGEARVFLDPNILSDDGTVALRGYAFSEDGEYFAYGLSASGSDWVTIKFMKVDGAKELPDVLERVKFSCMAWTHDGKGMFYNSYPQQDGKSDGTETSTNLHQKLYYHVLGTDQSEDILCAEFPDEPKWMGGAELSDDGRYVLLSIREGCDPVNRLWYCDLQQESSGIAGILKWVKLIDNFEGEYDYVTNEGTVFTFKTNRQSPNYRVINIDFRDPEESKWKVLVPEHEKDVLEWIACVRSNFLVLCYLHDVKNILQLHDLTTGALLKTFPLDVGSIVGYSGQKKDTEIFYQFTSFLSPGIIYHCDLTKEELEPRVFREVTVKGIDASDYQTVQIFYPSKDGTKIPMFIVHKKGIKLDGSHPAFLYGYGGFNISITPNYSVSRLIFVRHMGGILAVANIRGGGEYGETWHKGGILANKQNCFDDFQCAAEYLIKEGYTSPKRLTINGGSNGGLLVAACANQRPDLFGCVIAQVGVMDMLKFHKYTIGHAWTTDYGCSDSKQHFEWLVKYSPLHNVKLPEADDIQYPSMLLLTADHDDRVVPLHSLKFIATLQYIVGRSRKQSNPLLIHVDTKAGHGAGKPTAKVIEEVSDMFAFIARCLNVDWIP
Nature of the assay: (§1) Compound was tested in vitro for inhibition of Prolyl endopeptidase.

Assay [1] addresses T2, Prolyl endopeptidase (Homo sapiens) (UniProt P48147).
T2 sequence (whole entry): T1 sequence (P48147 whole entry)
Described as §1. The note with it: concentration not given here.

pIC50: −log10 of the molar value.

Sequence of Dipeptidyl peptidase 4 (P27487 whole entry): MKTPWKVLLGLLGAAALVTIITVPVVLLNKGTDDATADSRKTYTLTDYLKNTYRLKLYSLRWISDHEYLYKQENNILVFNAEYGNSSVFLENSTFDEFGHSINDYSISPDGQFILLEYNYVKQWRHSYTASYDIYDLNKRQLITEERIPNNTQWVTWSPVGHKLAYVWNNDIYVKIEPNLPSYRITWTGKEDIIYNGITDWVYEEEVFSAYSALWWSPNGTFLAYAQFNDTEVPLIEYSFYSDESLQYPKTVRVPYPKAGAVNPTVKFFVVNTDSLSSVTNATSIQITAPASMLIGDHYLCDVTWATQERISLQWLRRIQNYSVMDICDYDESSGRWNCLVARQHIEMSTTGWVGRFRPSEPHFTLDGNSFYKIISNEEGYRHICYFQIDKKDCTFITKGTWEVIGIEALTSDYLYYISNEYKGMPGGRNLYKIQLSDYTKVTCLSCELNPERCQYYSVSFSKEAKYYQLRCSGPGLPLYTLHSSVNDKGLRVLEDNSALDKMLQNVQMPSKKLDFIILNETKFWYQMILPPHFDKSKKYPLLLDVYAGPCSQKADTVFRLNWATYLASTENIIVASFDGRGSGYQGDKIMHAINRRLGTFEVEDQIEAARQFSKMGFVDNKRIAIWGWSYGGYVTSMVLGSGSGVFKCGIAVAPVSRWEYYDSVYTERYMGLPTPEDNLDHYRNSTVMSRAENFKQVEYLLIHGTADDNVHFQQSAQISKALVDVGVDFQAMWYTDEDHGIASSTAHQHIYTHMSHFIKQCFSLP

For orientation: pIC50 means the IC50 on a negative log10 scale, so that one unit is a factor of ten. A low value points to a large IC50. As for `N[C@H](C(=O)N1CCC[C@H]1B(O)O)c1ccccc1`, the pIC50 on Dipeptidyl peptidase 4 was 7.20.

`CC(C)C[C@H](N)C(=O)N1CCC[C@H]1B(O)O` showed a pIC50 on Dipeptidyl peptidase 4 of 7.36.

The compound `N[C@@H](Cc1ccccc1)C(=O)N1CCC[C@H]1B(O)O` gave a pIC50 against Dipeptidyl peptidase 4 of 7.15. Against the preceding compound, the pIC50 is 0.21 log units lower.

The compound `O=C([C@@H]1CCN1)N1CCC[C@H]1B(O)O` showed a pIC50 on Dipeptidyl peptidase 4 of 6.60. The same measure, in the same setting: with `N[C@@H](Cc1c[nH]cn1)C(=O)N1CCC[C@H]1B(O)O` the figure was 4.77. `C[C@@H](O)[C@H](N)C(=O)N1CCC[C@H]1B(O)O`: the pIC50 against Dipeptidyl peptidase 4 is 6.72; against Dipeptidyl peptidase 2, 6.14; against Prolyl endopeptidase, 5.22. `CC[C@H](C)[C@H](N)C(=O)N1CCC[C@H]1B(O)O` gave a pIC50 against Dipeptidyl peptidase 4 of 7.60. On Dipeptidyl peptidase 2, `C[C@H](N)C(=O)N1CCC[C@H]1B(O)O` gave a pIC50 of 7.22.

At Dipeptidyl peptidase 4, `CC(C)(N)C(=O)N1CCC[C@H]1B(O)O` had a pIC50 of 4.52. As usually defined, the inhibition is the relative decrease from the control value, in per cent. High values mean strong suppression, low ones little suppression. On to `O=C([C@@H]1CCCN1)N1CCC[C@H]1B(O)O`, for which the negative logarithm of the IC50 (pIC50) was 7.70 on Dipeptidyl peptidase 4 and 6.11 on Dipeptidyl peptidase 2. Besides, the inhibition in assay [1] worked out at 63%. In the case of `NCC(=O)N1CCC[C@H]1B(O)O`, the pIC50 on Dipeptidyl peptidase 4 was 4.80. In turn, `N[C@@H](Cc1ccc(O)cc1)C(=O)N1CCC[C@H]1B(O)O` had a pIC50 against Dipeptidyl peptidase 4 of 7.49. Same read-out and setting: with `NCCCC[C@H](N)C(=O)N1CCC[C@H]1B(O)O` the figure was 7.02.
